A short description of data set [1]: Tissue distribution of OLC and its metabolites in rats after oral gavage of OLC-enriched refined olive oil (LC-ESI-LTQ-Orbitrap-MS). The data set is classed as in vivo, Male Sprague Dawley rats. The note with it: for plasma and tissues in which the compound was detected: liver, kidney, spleen, lungs, heart, brain, thyroid, skin, 1, 2, 4.5 h after oral ROO with OLC; for decrease of OLC concentration in the intestine / decrease of OLC concentration in the stomach: relative to the maximum at 1 h; for decrease of OLC concentration in the stomach: stomach samples. On the procedure: The studies were conducted following a protocol approved by the Animal Experimentation Ethics Committee of the University of Barcelona, Spain (trial no. CEEA 124/16) and Generalitat de Catalunya (no. 6435). Male Sprague Dawley rats (body weight 249 ± 8 g) were purchased from Envigo RMS Spain S.L. (Sant Feliu de Codines, Barcelona, Spain). The animals were acclimatized in animal housing in an air-conditioned room at 22 ± 2 °C under a 12 h/12 h cycle of light and darkness and given free access to a commercial diet (Teklad 2014, Envigo RMS Spain S.L.) and water for at least 10 days before the study. The rats were fasted for over 12 h before the experiments but were allowed free access to water.
Before the distribution experiment, the ROO (vehicle) was analyzed by LC-ESI-LTQ-Orbitrap-MS to make sure it was free of phenolic compounds. The liquid–liquid extraction of phenolic compounds of ROO was performed following the previously described procedures. The chromatographic and mass spectrometer conditions were the same as those used for the identification of metabolites (Section 2.3). After verifying that the ROO was free of phenols, OLC was added to obtain a final concentration of 0.3 mg/mL. The OLC concentration was chosen while taking into account both the OLC concentration in commercial EVOO (~300 mg/kg) and the daily ingestion of EVOO recommended by the European Food Safety Authority of at least 5 mg of hydroxytyrosol and its derivatives per 20 g of olive oil.
The rats were divided into four groups—a control group (no administration) and three dosed groups—to study the distribution of OLC at three different time points: 1, 2 and 4.5 h post-administration. On treatment day, the rats received the ROO containing OLC by oral gavage (2.5 mL/300 g body weight). The volume for gavage administration was established following a good practice guide for substance administration and was lower than the maximum volume of lipid vehicles per kg of rat body weight that prevented elevated plasma corticosterone levels.
The rats were anesthetized with isoflurane (IsoFloR, Veterinaria Esteve, Barcelona, Spain) and euthanized by exsanguination via cardiac puncture at 1, 2 or 4.5 h after ROO ingestion. The control group was maintained under fasting conditions without olive oil ingestion and then similarly euthanized. The blood was collected in EDTA tubes, and plasma samples were obtained by centrifugation (3000× g for 10 min at 4 °C) and stored at −80 °C until analysis. Different tissues and organs (heart, liver, spleen, lungs, kidney, brain, thyroid, stomach, small intestine and skin) were removed from the rats and placed in pre-weighed tubes. The small intestine samples consisted of a pool of duodenum, jejunum and ileum segments, but the main region used was the jejunum. The procedure was to locate the plica duodenocolica and, from there up to about 5 cm of the intestine before reaching the cecum, to remove it from the animal. The collected tissues were washed with physiological serum at 37 °C and placed between absorbent paper to remove the rest of the serum. In the case of the intestine, the luminal contents were first removed by applying pressure with the index finger and thumb, and then the lumen was washed by perfusing with the physiological serum at 37 °C. It was then placed between absorbent paper to remove the remains of the washings. In order to avoid compound oxidation, the collected tissues were kept on ice at all times. Finally, the samples were weighed and stored at −80 °C until analysis. For each group, four animals were used.
The tissues were homogenized with a small tissue disruptor (T 10 basic ULTRA-TURRAX®, IKA laboratory technology, Staufen Germany) in a 1:1 ratio (w/v) with water:ACN (1:1 (v/v) with 0.1% ascorbic acid). The samples were sonicated for 5 min in an ice bath and shaken for 1 min (Vortex-Genie 2). Each homogenate was centrifuged for 10 min (11,000× g at 4 °C). […]

On the set-up of data set [2]: method as in PMID 33348608. The note with it: in vivo, rats; cited from earlier work.
Details of data set [3]: method as in doi:10.1016/j.foodchem.2009.07.017. The note with it: cited from earlier work.
[4] abbreviates: plasma, stomach, small intestine.

As to `OCCc1ccc(O)cc1` [TY, tyrosol], in data set [1] (setting [4]), the “plasma and tissues in which the compound was detected” value was “only detected in the stomach and intestinal samples”. The “time of Cmax (highest concentration among the three sample times 1, 2, 4.5 h)” value in data set [1] (small intestine) and in data set [1] (stomach) was 1 h each time.

Take `C/C=C(/C=O)[C@@H](CC=O)CC(=O)OCCc1ccc(O)cc1` [OLC, oleocanthal]: the intestinal absorption in data set [2] is 16%. Moreover, the “concentration in the aqueous phase (partition between the oily and aqueous phase)” value in data set [3] (digestion of dietary lipids, lipid–water emulsion) is 68.7%. For the same molecule, in data set [3] (in vitro digestion study), the “stability in the gastric phase” value is reported as “good OLC stability in the gastric phase”. Besides, the detection in plasma entry in data set [1] (plasma) is “not found in the plasma”. For the same molecule, the “plasma and tissues in which the compound was detected” value in data set [1] (setting [4]) is “only detected in the stomach and small intestine samples”. The “time of Cmax (highest concentration among the three sample times 1, 2, 4.5 h)” value in data set [1] (small intestine) and in data set [1] (stomach) was 1 h each time. The “decrease of OLC concentration in the intestine” value was 16% in data set [1] (small intestine, 2 h post-ingestion) and 33% in data set [1] (small intestine, 4.5 h post-ingestion). Further, the “decrease of OLC concentration in the stomach” value in data set [1] (2 h post-ingestion, ROO with 0.3 mg/mL OLC by oral gavage 2.5 mL/300 g body weight) was 36%; in data set [1] (4.5 h post-ingestion), 74%.

Values taken from PMC8146289, “Tissue Distribution of Oleocanthal and Its Metabolites after Oral Ingestion in Rats” (Antioxidants, 2021).
